Measured values reported in patent US9175031B2, “Ketolide compounds” (WOCKHARDT LIMITED, priority 2010, dated 2015).
≈ marks a conversion by molar mass, not a printed value. One block for each compound: values may come before it.

Columns and labels:
S pneumoniae 3773 = assay: In vivo oral efficacy (ED50) in mice intraperitoneally infected with S pneumoniae 3773; conditions: Mus musculus, two doses at 1 hour and 4 hour after intraperitoneal infection with S pneumoniae 3773, survival on day seven, read-out: ED50 (Dose protecting 50% of infected mice)
Protocol: The in vivo efficacy of compounds of the invention was evaluated by determining ED50 by oral administration of compounds to group of mice (6 mice/dose group) intraperitoneally infected with (5×10^7-1×10^8 CFU/mouse) S pneumoniae 3773. Two doses of compounds of the invention and Telithromycin were administered at 1 hour and 4 hour after infection. On day seven, percentage of animals surviving in various dose groups were employed to determine ED50 (Dose protecting 50% of infected mice)

[1] = tested on: S pneumoniae sensitive strains; assay: MIC, CLSI agar dilution method; type: cell-based; conditions: 18 hrs at 37° C.
Protocol: (§1) The antibacterial activity of compounds of the invention was evaluated by determining the minimal inhibitory concentration (MIC) according to standard CLSI agar dilution method. The media used for preculture and main culture were Tryptic Soya broth (Difco) and Mueller Hinton medium (Difco), respectively. The Mueller Hinton agar was supplemented with 5% sheep blood for streptococci and pneumococci, and with haemoglobin as well as NAD (nicotinamide adenine dinucleotide) for Haemophilus influenzae, respectively. Overnight cultures were diluted with buffered saline (pH 7.2) to the final cell density of 5×10^6-10^7 CFU/ml, and each bacterial suspension was applied with a replicator (Denley's multipoint inoculator, UK) onto a series of Mueller-Hinton agar plates containing antibacterial agents at various concentrations. Final inoculum was approximately 10^4 CFU/spot. The plates were incubated for 18 hrs at 37° C. The MIC was defined as the lowest concentration of an antibacterial agent that inhibits the development of visible microbial growth on agar.

[2] = tested on: S pneumoniae 3773, a high level ermb strain; assay: MIC, CLSI agar dilution method; type: cell-based; conditions: S pneumoniae 3773, high level ermb strain, 18 hrs at 37° C.
Protocol: as §1

H influenzae = assay: MIC, CLSI agar dilution method; type: cell-based; conditions: 18 hrs at 37° C.
Protocol: as §1

S pneumoniae mef strains = assay: MIC, CLSI agar dilution method; type: cell-based; conditions: 18 hrs at 37° C.
Protocol: as §1

[3] = tested on: S pyogene 3530, a high level ermb strain; assay: MIC, CLSI agar dilution method; type: cell-based; conditions: S pyogene 3530, high level ermb strain, 18 hrs at 37° C.
Protocol: as §1

[4] = tested on: S pneumoniae ermb strains; assay: MIC, CLSI agar dilution method; type: cell-based; conditions: 18 hrs at 37° C.
Protocol: as §1

melting point: 196 to 197 °C
Structure (SMILES): CC[C@@H]1OC(=O)[C@@](C)(F)C(=O)[C@H](C)[C@@H](OC2O[C@H](C)C[C@H](N(C)C)[C@H]2O)[C@](C)(OC)C[C@@H](C)C(=O)[C@H](C)[C@H]2[C@H](/C(N)=N/OCc3ncc(-c4ccon4)cn3)C(=O)O[C@@]21C (stereo partly drawn) [Example 3, (11S,21R)-3-decladinosyl-11,12-dideoxy-2-fluoro-6-O-methyl-3-oxo-12,11-{oxycarbonyl-[E-N-[(5-isoxazol-3-yl-pyrimidin-2-yl)-methoxy]-carboxamidino]methylene}-erythromycin A]

melting point: 192 to 194 °C
Structure (SMILES): CC[C@@H]1OC(=O)[C@@](C)(F)C(=O)[C@H](C)[C@@H](OC2O[C@H](C)C[C@H](N(C)C)[C@H]2O)[C@](C)(OC)C[C@@H](C)C(=O)[C@H](C)[C@H]2[C@H](/C(N)=N/OCc3nnc(-c4ncccn4)s3)C(=O)O[C@@]21C (stereo partly drawn) [Example 7, (11S,21R)-3-decladinosyl-11,12-dideoxy-2-fluoro-6-O-methyl-3-oxo-12,11-{oxycarbonyl-[E-N-[(5-pyrimidin-2-yl-1,3,4-thiadiazol-2-yl)-methoxy]-carboxamidino]methylene}-erythromycin A]

melting point: 135 to 137 °C
Structure (SMILES): CC[C@@H]1OC(=O)[C@H](C)C(=O)[C@H](C)[C@@H](OC2O[C@H](C)C[C@H](N(C)C)[C@H]2O)[C@](C)(OC)C[C@@H](C)C(=O)[C@H](C)[C@H]2[C@H](/C(N)=N/O[C@@H](C)c3nnc(-c4ccccn4)s3)C(=O)O[C@@]21C (stereo partly drawn) [Example 33, (11S,21R)-3-decladinosyl-11,12-dideoxy-6-O-methyl-3-oxo-12,11-{oxycarbonyl-[E-N-[1-(5-pyridin-2-yl-1,3,4-thiadiazol-2-yl)-(S)-ethoxy]-carboxamidino]methylene}-erythromycin A]

MIC [1]: 0.007 to 0.015 µg/mL (≈ 0.00862 to 0.0185 µM) | MIC [2]: 4 µg/mL (≈ 4.93 µM) | MIC (H influenzae): 4 to 8 µg/mL (≈ 4.93 to 9.85 µM) | MIC (S pneumoniae mef strains): 0.015 to 1 µg/mL (≈ 0.0185 to 1.23 µM) | MIC [3]: 16 µg/mL (≈ 19.7 µM) | MIC [4]: 0.007 to 0.5 µg/mL (≈ 0.00862 to 0.616 µM)
Structure (SMILES): CC[C@H]1OC(=O)[C@H](C)C(=O)[C@H](C)[C@@H](O[C@@H]2O[C@H](C)C[C@H](N(C)C)[C@H]2O)[C@](C)(OC)C[C@@H](C)C(=O)[C@H](C)[C@H]2N(CCCCn3cnc(-c4cccnc4)c3)C(=O)O[C@]12C [Telithromycin]
ED50 (S pneumoniae 3773): 75 to 100 mg/kg
